Laboratory results from patent publication US20240199754A1 (VANCOUVER BIOTECH LTD., priority 2021, published 2024).

Legend:
[1] = target: T1, N1-29 synthetic oligopeptide of GnRH receptor from humans (Homo sapiens, UniProt P30968); experiment: Comparative binding ELISA on well-coated N1-29 oligopeptide (human); details: vs unrelated RP215 negative control
T1 sequence (P30968 1-30): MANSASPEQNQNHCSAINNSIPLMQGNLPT
Description: (§1) Therefore, comparative binding ELISA studies were performed to estimate the relative binding affinity between GHR-106 and microwell-coated N1-29 oligopeptides derived from human, dog and rabbit, respectively. The results of such binding studies are presented and compared in FIG. 2.
(§2) Unrelated RP215 monoclonal antibody was used as the negative control for any blank subtractions. Goat anti-human IgG labeled with alkaline phosphatase was used as the second antibody for signal detection. P-nitrophenyl phosphate was used as the substrate and monitored at 405 nm and double log plot presented.

[2] = tested on: N1-29 synthetic oligopeptide of GnRH receptor from dog; experiment: Comparative binding ELISA on well-coated N1-29 oligopeptide (dog); details: vs unrelated RP215 negative control
Description: as §1, §2

[3] = tested on: N1-29 synthetic oligopeptide of GnRH receptor from rabbit; experiment: Comparative binding ELISA on well-coated N1-29 oligopeptide (rabbit); details: vs unrelated RP215 negative control
Description: as §1, §2

pituitary GnRH receptor [4] = experiment: Serum LH and testosterone after single injection, single adult male rabbit; type: in vivo
Description: In the case of male rabbits, serum concentrations of reproductive hormones including luteinizing hormone (LH) and testosterone were monitored regularly following a single subcutaneous injection with 3 mg/kg of hGHR-106.
The serum LH and testosterone concentrations were determined, respectively, by EIA kits and plotted as a function of time during the day 1 to 30 time period.

pituitary GnRH receptor [5] = experiment: Serum LH and estradiol after single injection, female rabbit; type: in vivo
Description: The hormonal profiles of serum luteinizing hormone (LH) and Estradiol (E2) in female rabbits were monitored upon a single injection with a 3 mg/kg dose of hGHR-106.

pituitary GnRH receptor [6] = experiment: Large scale proof of concept experiment, male rabbits (testosterone, LH); type: in vivo, rabbit
Description: (§3) With preliminary observations in single rabbit data, large scale rabbit experiments (n≥30) including negative controls were conducted with identical protocols. […] The data generated in each experimental group were analyzed statistically. The means and standard deviations of hormone levels from rabbits in each experimental group are presented in FIGS. 6-9 and corresponding selected statistical analyses and separate comparisons with those of the negative controls are presented in Table 1 to Table 4.
In the case of male rabbits, the serum concentrations of reproductive hormones including LH and testosterone of ten male rabbits were monitored and measured after a single subcutaneous injection with 1 mg/kg of GHR-106 (low dosage, n=3) or 3 mg/kg of GHR-106 (high dosage, n=3) on day 1, or after no injection (negative control, n=4). Serum testosterone levels were determined and the averages (with standard deviations) were determined from day 1 to day 17, and serum LH levels were determined starting on day 1 and ending on day 13 (with standard deviations) The results of the testosterone profile are found in FIG. 6. The results of the LH profile are found in FIG. 7. Selected statistical analyses and separate comparisons with those of the negative controls for FIG. 6 and FIG. 7 are found in Table 1 and Table 2, respectively.

pituitary GnRH receptor [7] = experiment: Large scale proof of concept experiment, female rabbits (estradiol, LH); type: in vivo, rabbit
Description: as §3
Target sequence in this assay (as listed by the source): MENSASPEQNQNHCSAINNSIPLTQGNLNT
In the case of female rabbits, the serum concentrations of reproductive hormones including LH and estradiol (E2) of ten female rabbits were monitored and measured after a single subcutaneous injection with 1 mg/kg of GHR-106 (low dosage, n=3) or 3 mg/kg of GHR-106 (high dosage, n=3) on day 1, or after no injection (negative control, n=4). Serum E2 levels were determined starting on day 1 and ending on day 17, and serum LH levels were determined starting on day 1 and ending on day 13. The results of the estradiol (E2) profile are found in FIG. 8. The results of the LH profile are found in FIG. 9. Selected statistical analyses and separate comparisons with those of the negative controls for FIG. 8 and FIG. 9 are found in Table 3 and Table 4, respectively.

pituitary GnRH receptor [8] = experiment: Proof-of-concept rabbit experiments overall (single and multi-rabbit); type: in vivo; details: single injection, 1 mg/kg or 3 mg/kg
Description: as §3

[9] = tested on: OC-3-VGH ovarian cancer cells; experiment: Quantitative RT-PCR gene regulation study; type: cell-based, human; details: quantitative RT-PCR after incubation with cancer cells
GnRHR = target: T2, GnRHR (Homo sapiens, UniProt P30968); experiment: Detection of GnRHR overexpression in a reference cell line; type: cell-based; details: compared with four commercially available antibodies
T2 sequence (P30968 1-328): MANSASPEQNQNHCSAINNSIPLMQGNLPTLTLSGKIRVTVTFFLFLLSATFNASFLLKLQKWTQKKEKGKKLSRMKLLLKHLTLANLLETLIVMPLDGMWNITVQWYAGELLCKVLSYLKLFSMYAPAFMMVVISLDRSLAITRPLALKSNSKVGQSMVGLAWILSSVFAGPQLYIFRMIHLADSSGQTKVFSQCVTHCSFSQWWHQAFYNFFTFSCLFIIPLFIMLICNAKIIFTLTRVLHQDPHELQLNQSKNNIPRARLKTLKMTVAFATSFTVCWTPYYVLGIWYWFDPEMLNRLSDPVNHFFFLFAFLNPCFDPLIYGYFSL
Description: In particular, the ability of GHR-106 to detect overexpression of GnRHR in a reference cell line is tested and compared with four different commercially available antibodies.

[10] = in vivo; cited from earlier work
[11] = tested on: N1-29 peptide of monkey GnRH receptor; details: cited from earlier work
[12] = tested on: N1-29 peptide of rabbit GnRH receptor; details: cited from earlier work
[13] = tested on: N1-29 peptide of dog GnRH receptor; details: cited from earlier work
[14] = tested on: N1-29 peptide of cat GnRH receptor; details: cited from earlier work
human cancer cells = details: 24 to 72 hours co-incubation with 1-10 μg/ml; cited from earlier work
[15] = male rabbit, single subcutaneous injection of 1 mg/kg or 3 mg/kg
[16] = male rabbits, single injection day 1, low (1 mg/kg) or high (3 mg/kg) dosage, vs negative control
[17] = single injection day 1, low (1 mg/kg) or high (3 mg/kg) dosage, vs negative control

Chain of N1-29 synthetic oligopeptide of GnRH receptor from dog (as listed by the source): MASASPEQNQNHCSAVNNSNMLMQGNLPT
Chain of N1-29 peptide of cat GnRH receptor (as listed by the source): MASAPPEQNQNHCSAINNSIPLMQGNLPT
Chain of N1-29 peptide of rabbit GnRH receptor (as listed by the source): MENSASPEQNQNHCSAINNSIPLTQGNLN
Chain of N1-29 peptide of monkey GnRH receptor (as listed by the source): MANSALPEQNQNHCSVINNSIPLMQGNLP

GHR-106: monoclonal antibody against N1-29 oligopeptide of human GnRH receptor; examples use humanized IgG4 form, heavy chain SEQ ID NO:7, light chain SEQ ID NO:8
binding affinity to N1-29 peptide (ELISA, ΔOD 405 nm) [1]: comparable to one another
binding affinity to N1-29 peptide (ELISA, ΔOD 405 nm) [2]: comparable to one another
binding affinity to N1-29 peptide (ELISA, ΔOD 405 nm) [3]: comparable to one another
duration of low LH levels (pituitary GnRH receptor [4]; 3 mg/kg s.c.): at least one to two
serum LH (pituitary GnRH receptor [4]; 3 mg/kg s.c., after 24-48 hours, from 3.5 mlU/ml): < 0.5 mlU/ml
serum LH, stable normal range reached (pituitary GnRH receptor [4]; 3 mg/kg s.c., end of the third week): 2.9-5.0 mlU/ml
decrease of serum testosterone concentration (pituitary GnRH receptor [4]; 3 mg/kg single injection, first two weeks): more than 80%
serum testosterone concentration (pituitary GnRH receptor [4]; 3 mg/kg single injection, first two weeks, from 0.95 ng/ml): ≤ 0.1 ng/mL
LH and testosterone hormone levels (pituitary GnRH receptor [4]; 3 mg/kg, day 30): within the normal range
serum LH (pituitary GnRH receptor [5]; 3 mg/kg single injection, first few days, from 3 mlU/ml): ≤ 1 mlU/ml
serum E2 concentration (pituitary GnRH receptor [5]; 3 mg/kg single injection, until day 10, from 50 pg/ml): ≤ 20 pg/mL
serum E2 concentration reached on recovery (pituitary GnRH receptor [5]; 3 mg/kg, after day 18 and 20): 120 pg/mL
serum LH concentration reached on recovery (pituitary GnRH receptor [5]; 3 mg/kg, after day 18 and 20): 6 mIU/ml
decrease of serum LH concentration, of the normal level (pituitary GnRH receptor [6]; [15]): 80 to 90%
decrease of serum testosterone concentration, of the normal level (pituitary GnRH receptor [6]; [15]): 80 to 90%
period of decreased serum LH and testosterone (pituitary GnRH receptor [6]; [15]): seven to ten
time until reproductive hormones returned to normal levels after the initial injection (pituitary GnRH receptor [6]; [15]): approximately two
t test, LH profile, neg. ctrl to 1 mg/kg (pituitary GnRH receptor [6]; male rabbits, Day 3, 1 mg/kg): 3.579
t test, testosterone profile, neg. ctrl to 1 mg/kg (pituitary GnRH receptor [6]; male rabbits, Day 3, 1 mg/kg): 2.966
t test, LH profile, neg. ctrl to 3 mg/kg (pituitary GnRH receptor [6]; male rabbits, Day 3, 3 mg/kg): 1.474
t test, testosterone profile, neg. ctrl to 3 mg/kg (pituitary GnRH receptor [6]; male rabbits, Day 3, 3 mg/kg): 4.2
t test, LH profile, neg. ctrl to 1 mg/kg (pituitary GnRH receptor [6]; male rabbits, Day 5, 1 mg/kg): 4.698
t test, testosterone profile, neg. ctrl to 1 mg/kg (pituitary GnRH receptor [6]; male rabbits, Day 5, 1 mg/kg): 3.353
t test, LH profile, neg. ctrl to 3 mg/kg (pituitary GnRH receptor [6]; male rabbits, Day 5, 3 mg/kg): 3.596
t test, testosterone profile, neg. ctrl to 3 mg/kg (pituitary GnRH receptor [6]; male rabbits, Day 5, 3 mg/kg): 3.851
t test, LH profile, neg. ctrl to 1 mg/kg (pituitary GnRH receptor [6]; male rabbits, Day 7, 1 mg/kg): 4.126
t test, testosterone profile, neg. ctrl to 1 mg/kg (pituitary GnRH receptor [6]; male rabbits, Day 7, 1 mg/kg): 1.086
t test, LH profile, neg. ctrl to 3 mg/kg (pituitary GnRH receptor [6]; male rabbits, Day 7, 3 mg/kg): 3.62
t test, testosterone profile, neg. ctrl to 3 mg/kg (pituitary GnRH receptor [6]; male rabbits, Day 7, 3 mg/kg): 7.396
t test, LH profile, neg. ctrl to 1 mg/kg (pituitary GnRH receptor [6]; male rabbits, Day 9, 1 mg/kg): 2.936
t test, testosterone profile, neg. ctrl to 1 mg/kg (pituitary GnRH receptor [6]; male rabbits, Day 9, 1 mg/kg): 0.3439
t test, LH profile, neg. ctrl to 3 mg/kg (pituitary GnRH receptor [6]; male rabbits, Day 9, 3 mg/kg): 3.56
t test, testosterone profile, neg. ctrl to 3 mg/kg (pituitary GnRH receptor [6]; male rabbits, Day 9, 3 mg/kg): 0.8405
serum LH levels (pituitary GnRH receptor [6]; [16]): reversibly suppressed
serum testosterone levels (pituitary GnRH receptor [6]; [16]): reversibly suppressed
t test, LH profile, neg. ctrl to 1 mg/kg (pituitary GnRH receptor [7]; Day 3, 1 mg/kg): 3.93
t test, estradiol (E2) profile, neg. ctrl to 1 mg/kg (pituitary GnRH receptor [7]; Day 3, 1 mg/kg): 1.179
t test, LH profile, neg. ctrl to 3 mg/kg (pituitary GnRH receptor [7]; Day 3, 3 mg/kg): 6.348
t test, estradiol (E2) profile, neg. ctrl to 3 mg/kg (pituitary GnRH receptor [7]; Day 3, 3 mg/kg): 1.125
t test, LH profile, neg. ctrl to 1 mg/kg (pituitary GnRH receptor [7]; Day 5, 1 mg/kg): 6.556
t test, estradiol (E2) profile, neg. ctrl to 1 mg/kg (pituitary GnRH receptor [7]; Day 5, 1 mg/kg): 2.893
t test, LH profile, neg. ctrl to 3 mg/kg (pituitary GnRH receptor [7]; Day 5, 3 mg/kg): 5.114
t test, estradiol (E2) profile, neg. ctrl to 3 mg/kg (pituitary GnRH receptor [7]; Day 5, 3 mg/kg): 2.039
t test, LH profile, neg. ctrl to 1 mg/kg (pituitary GnRH receptor [7]; Day 7, 1 mg/kg): 6.018
t test, estradiol (E2) profile, neg. ctrl to 1 mg/kg (pituitary GnRH receptor [7]; Day 7, 1 mg/kg): 2.807
t test, LH profile, neg. ctrl to 3 mg/kg (pituitary GnRH receptor [7]; Day 7, 3 mg/kg): 4.126
t test, estradiol (E2) profile, neg. ctrl to 3 mg/kg (pituitary GnRH receptor [7]; Day 7, 3 mg/kg): 2.45
t test, LH profile, neg. ctrl to 1 mg/kg (pituitary GnRH receptor [7]; Day 9, 1 mg/kg): 1.1
t test, estradiol (E2) profile, neg. ctrl to 1 mg/kg (pituitary GnRH receptor [7]; Day 9, 1 mg/kg): 3.048
t test, LH profile, neg. ctrl to 3 mg/kg (pituitary GnRH receptor [7]; Day 9, 3 mg/kg): 4.126
t test, estradiol (E2) profile, neg. ctrl to 3 mg/kg (pituitary GnRH receptor [7]; Day 9, 3 mg/kg): 5.087
serum LH levels (pituitary GnRH receptor [7]; [17]): reversibly suppressed
serum estradiol (E2) levels (pituitary GnRH receptor [7]; [17]): reversibly suppressed
time until hormone levels return to normal ranges (pituitary GnRH receptor [8]): 1-3 weeks
gene expression changes of ten regulatory genes, compared between GHR-106 and Antide [9]: strong similarity
ability to detect overexpression of GnRHR (GnRHR): able to detect overexpression of GnRHR
half-life [10]: 120 to 504 h
cross-reactivity with N1-29 peptide [11]: cross-reacts
cross-reactivity with N1-29 peptide [12]: cross-reacts
cross-reactivity with N1-29 peptide [13]: cross-reacts
cross-reactivity with N1-29 peptide [14]: cross-reacts
degrees of induced apoptosis (human cancer cells): comparable to those of the decapeptide GnRH antagonist, Antide
